Assay results reported in PMC10305287, “Design, Synthesis, and Evaluation of the COX-2 Inhibitory Activities of New 1,3-Dihydro-2H-indolin-2-one Derivatives” (Molecules, 2023).
Entries after “also recorded” stand apart in the source; their conditions may differ.

What was measured:
RAW 264.7 cells = experiment: Cytotoxicity assay (CCK-8) on RAW 264.7 cells; type: cell-based, mouse
Experimental: The RAW 264.7 murine macrophage cells were obtained from the Cell Bank of the Chinese Academy of Sciences (Shanghai, China). RAW 264.7 cells were cultured in DMEM (Dulbecco’s Modified Eagle Medium) medium supplemented with 10% fetal bovine serum and 1% penicillin/streptomycin at 37 °C and 5% CO2 in a saturated humidified incubator. The Cell Counting Kit-8 (CCK-8) method was used to evaluate the cytotoxicity of all the compounds on RAW 264.7 cells in vitro. […] After 24 h of cultivation, the cells were incubated with a CCK-8 solution (10 µL). After incubation at 37 °C and 5% CO2 for 2–4 h, the optical density (OD) was recorded at 450 nm by a microplate reader. The half-maximal inhibitory concentration (IC50) was calculated by SPSS 22.0 software. PDTC was used as a positive control.

[1] = biological target: T1, human recombinant COX-2 enzyme (Homo sapiens, UniProt P35354); experiment: In vitro COX-2 inhibitory assay (Cyclooxygenase-2 Inhibitor Screening Kit); type: biochemical; details: for IC50: human recombinant COX-2, fluorescence kit, mean ± SD, n = 3; for COX-2 inhibitory activity (in words): human recombinant COX-2, screening kit
T1 construct: purchased Beyotime Company, Shanghai, China
T1 sequence (P35354 18-604): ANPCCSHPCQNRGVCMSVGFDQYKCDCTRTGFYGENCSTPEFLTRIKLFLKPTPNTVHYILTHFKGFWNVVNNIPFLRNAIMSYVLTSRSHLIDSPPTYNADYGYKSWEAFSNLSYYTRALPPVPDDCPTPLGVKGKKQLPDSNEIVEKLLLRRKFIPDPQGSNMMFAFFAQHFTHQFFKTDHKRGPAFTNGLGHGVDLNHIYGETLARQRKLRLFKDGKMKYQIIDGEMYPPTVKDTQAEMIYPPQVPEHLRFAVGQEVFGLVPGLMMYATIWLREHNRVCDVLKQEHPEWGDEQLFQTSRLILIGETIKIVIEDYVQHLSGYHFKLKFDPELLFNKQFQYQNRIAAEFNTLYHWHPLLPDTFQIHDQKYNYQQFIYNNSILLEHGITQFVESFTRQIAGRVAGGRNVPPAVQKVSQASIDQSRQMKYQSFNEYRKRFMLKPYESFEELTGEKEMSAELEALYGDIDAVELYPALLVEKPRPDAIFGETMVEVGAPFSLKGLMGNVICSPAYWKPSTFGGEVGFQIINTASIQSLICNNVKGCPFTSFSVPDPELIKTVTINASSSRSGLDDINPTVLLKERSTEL
Experimental: The reaction was started by the addition of COX-2 substrate and allowed to proceed for 5 min. The intensity of fluorescence at an emission wavelength of 590 nm upon 560 nm excitation was measured using a microplate reader (Thermo Varioskan LUX, Waltham, MA, USA). All tests were repeated three times independently.

[2] = tested on: NO production in LPS-stimulated RAW 264.7 cells; experiment: Inhibition of NO production in LPS-stimulated RAW 264.7 cells; type: cell-based, murine; details: for Anti-inflammatory activity, NO production (in words): LPS-stimulated RAW 264.7 cells; for IC50: LPS-activated RAW 264.7 cells, mean ± SD, n = 3
Experimental: RAW 264.7 cells were cultured in DMEM medium supplemented with 10% fetal bovine serum and 1% penicillin/streptomycin at 37 °C and 5% CO2 in a saturated humidified incubator. Then cells were seeded in 24-well plates (4 × 10^5 cells/well) after 24 h of incubation and treated with different concentrations of compounds (80, 40, 20, and 5 μM) for 2 h. The cells were stimulated with LPS (5 μg/mL) for 24 h, the supernatant was transferred to a new 24-well microtiter plate, and the NO concentration in the cell supernatant was calculated using an NO detection kit (Beyotime Company, Shanghai, China).

COX-2 = details: read-out: IC50 (COX-2); cited from earlier work
[3] = CCK-8, concentration not stated

SMILES	melting point [°C]	Cytotoxicity (in words) (RAW 264.7 cells; [3])	IC50 [1] [µM]	Anti-inflammatory activity, NO production (in words) [2]	IC50 ([2]; Mus musculus, RAW264.7) [µM]	Cytotoxicity (in words) (RAW 264.7 cells; CCK-8, at 100 μM)	COX-2 inhibitory activity (in words) [1]	IC50 [2] [µM]	IC50 (COX-2) [µM]
CC(=O)N1C(=O)/C(=C\c2cccc(C(F)(F)F)c2)c2ccc(C(F)(F)F)cc21 [Compound 4a]	131.2 to 132.1	weak cytotoxicity	19.9 ± 4.76	obvious anti-inflammatory activity	17.8 ± 1.86				
CC(=O)N1C(=O)/C(=C/c2cccc(C(F)(F)F)c2)c2ccc(C(F)(F)F)cc21 [Compound 4b]	91.3 to 92.8								
CC(=O)N1C(=O)C(=Cc2cccc(C(F)(F)F)c2)c2cc(N)ccc21 [Compound 4e]	165.9 to 166.2	weak cytotoxicity	3.34 ± 0.05	obvious anti-inflammatory activity	13.5 ± 0.48	almost no cytotoxicity; also recorded: no significant cytotoxicity			
CC(=O)N1C(=O)C(=Cc2ccc(C(F)(F)F)cc2)c2ccc(Cl)cc21 [Compound 4i]	142.9 to 144.1	weak cytotoxicity		obvious anti-inflammatory activity	20.4 ± 1.61				
CC(=O)N1C(=O)C(=Cc2cccc(C(F)(F)F)c2)c2ccccc21 [Compound 4j]	121.5 to 123.3	weak cytotoxicity		obvious anti-inflammatory activity	16.3 ± 0.35				
CC(=O)N1C(=O)C(=Cc2ccccc2C(F)(F)F)c2ccc(Cl)cc21 [Compound 4k]	131 to 133.6		> 20						
COc1cccc(C=C2C(=O)N(C(C)=O)c3cc(Cl)ccc32)c1 [Compound 4s]	141.3 to 143.2					almost no cytotoxicity			
O=C1Nc2ccc(NS(=O)(=O)c3ccc([N+](=O)[O-])cc3)cc2C1=Cc1cccc(C(F)(F)F)c1 [Compound 9d]	226.5 to 226.9	weak cytotoxicity		obvious anti-inflammatory activity	10 ± 0.27				
Cc1ccc(S(=O)(=O)Nc2ccc3c(c2)C(=Cc2cccc(C(F)(F)F)c2)C(=O)N3)cc1 [Compound 9f]	191.1 to 191.5								
O=C1Cc2cc(/N=C/c3cccc(C(F)(F)F)c3)ccc2N1 [Compound 9h]	166.3 to 166.8	no cytotoxicity	2.35 ± 0.04	no anti-inflammatory activity		almost no cytotoxicity	good inhibitory activity		
O=C1Cc2cc(N=Cc3cc(C(F)(F)F)cc(C(F)(F)F)c3)ccc2N1 [Compound 9i, 5-((3,5-bis(trifluoromethyl)benzylidene)amino)indolin-2-one]	191.1 to 191.5	no cytotoxicity	2.42 ± 0.1	no anti-inflammatory activity		almost no cytotoxicity	good inhibitory activity		
S=C(S)N1CCCC1 [PDTC, Ammonium pyrrolidinedithiocarbamate, reference compound]								13.7 ± 0.88	
